Laboratory results: patent US12583921B2, “Targeted anti-SGLT1 avian IgY antibodies as treatment of pre-diabetes, type 2 diabetes and gestational diabetes” (Lay Sciences, Inc., priority 2022, dated 2026)
Marks after values point to notes of the source that are not given here.

Experiments:
SGLT1 = target: T1, SGLT1 (Homo sapiens, UniProt P13866); experiment: Inhibition of glucose uptake in human intestinal cell line CaCo2; type: cell-based; details: CaCo2 cells; 800 μg/ml; relative to uptake without intervention; FIG. 3
T1 construct: a human intestinal cell line CaCo2, which expresses SGLT1; endogenous in cells; host or cells: CaCo2
T1 sequence (P13866 1-664): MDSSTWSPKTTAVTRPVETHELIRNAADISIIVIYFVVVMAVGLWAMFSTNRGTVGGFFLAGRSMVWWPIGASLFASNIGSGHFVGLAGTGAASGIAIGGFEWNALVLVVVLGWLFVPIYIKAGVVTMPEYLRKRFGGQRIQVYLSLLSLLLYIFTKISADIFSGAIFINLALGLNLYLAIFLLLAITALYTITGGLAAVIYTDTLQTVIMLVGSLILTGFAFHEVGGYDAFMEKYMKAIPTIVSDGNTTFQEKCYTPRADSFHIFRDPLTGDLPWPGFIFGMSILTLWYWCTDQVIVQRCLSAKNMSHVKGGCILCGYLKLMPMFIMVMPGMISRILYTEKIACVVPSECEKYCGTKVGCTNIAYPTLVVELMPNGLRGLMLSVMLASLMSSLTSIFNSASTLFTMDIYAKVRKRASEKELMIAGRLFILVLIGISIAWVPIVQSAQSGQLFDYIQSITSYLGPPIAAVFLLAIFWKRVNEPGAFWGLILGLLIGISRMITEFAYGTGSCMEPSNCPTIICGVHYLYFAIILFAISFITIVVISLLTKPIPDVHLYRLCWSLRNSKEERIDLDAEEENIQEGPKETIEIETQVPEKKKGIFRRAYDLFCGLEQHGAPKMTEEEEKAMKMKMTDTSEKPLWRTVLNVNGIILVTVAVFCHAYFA
Procedure: The IgY antibodies were then tested for their ability to inhibit the uptake of glucose in a human intestinal cell line CaCo2, which expresses SGLT1. The data in FIG. 3 are shown as percent inhibition of glucose uptake relative to glucose uptake in the absence of any intervention. […] In the figure, ** is P<0.01 Student's t-tests were performed to compare between the glucose inhibition shown by controls, peptide, and different concentration of IgY antibodies.

Wistar rats = experiment: Oral Glucose Tolerance Test (OGTT) model in Wistar rats, single dose; type: in vivo; details: for blood glucose level, mean / area under curve, mean: metformin 200 mg/kg, n = 6
Procedure: An animal study was conducted to assess the effect of administering the anti-SGLT1 IgY antibody in an Oral Glucose Tolerance Test (OGTT) model in Wistar rats. The OGTT test was performed to determine if an intervention has blocked the intestinal absorption of orally given glucose load, and then lowering of the increase in blood glucose levels is observed. […] The OGTT studies were conducted on overnight fasting animals.

[1] = Procedure: The animals were acclimatized and were randomly distributed into 6 groups, each group comprised of 6 rats. The rats in group G1 served as a normal control group and were administered the vehicle (normal saline) alone at the dose volume of 10 mL/kg, whereas the rats in groups G2 and G3 were administered metformin and anti-SGLT1 IgY antibody, respectively, at the doses of 200 mg/kg and 500 mg/kg body weight for single administration.
[2] = 30, 60, 90 and 120 min after 2 g/kg oral glucose

Row | Molecule | percent inhibition of glucose uptake (SGLT1) | blood glucose level, mean (Wistar rats; 0 minutes (before glucose 2 gm/kg), anti-SGLT1 IgY 500 mg/kg given 30 min before) | area under curve, mean (Wistar rats; 0 minutes, anti-SGLT1 IgY 500 mg/kg) | area under curve compared to normal control group G1 (Wistar rats; [2]) | blood glucose level compared to normal control group G1 (Wistar rats; [2]) | blood glucose level, mean (Wistar rats; 30 minutes after glucose 2 gm/kg, anti-SGLT1 IgY 500 mg/kg) | area under curve, mean (Wistar rats; 30 minutes, anti-SGLT1 IgY 500 mg/kg) | blood glucose level, mean (Wistar rats; 60 minutes after glucose 2 gm/kg, anti-SGLT1 IgY 500 mg/kg) | area under curve, mean (Wistar rats; 60 minutes, anti-SGLT1 IgY 500 mg/kg) | blood glucose level, mean (Wistar rats; 90 minutes after glucose 2 gm/kg, anti-SGLT1 IgY 500 mg/kg) | area under curve, mean (Wistar rats; 90 minutes, anti-SGLT1 IgY 500 mg/kg) | blood glucose level, mean (Wistar rats; 120 minutes after glucose 2 gm/kg, anti-SGLT1 IgY 500 mg/kg) | area under curve, mean (Wistar rats; 120 minutes, anti-SGLT1 IgY 500 mg/kg) | blood glucose level, mean (Wistar rats; 180 minutes after glucose 2 gm/kg, anti-SGLT1 IgY 500 mg/kg) | area under curve, mean (Wistar rats; 180 minutes, anti-SGLT1 IgY 500 mg/kg) | Mortality ([1]; male rats, single dose, metformin 200 mg/kg, anti-SGLT1 IgY 500 mg/kg, deaths/animals observed) | Individual Animal Clinical Signs Observations ([1]; male, Wistar, rat, in vivo, 1 day) | Body Weights, mean ([1]; rat, in vivo)
1 | QSGQLFDYIQSITSYLGPP [peptide used as antigen] | able to block the uptake of glucose | – | – | – | – | – | – | – | – | – | – | – | – | – | – | – | – | –
2 | CN(C)C(=N)N=C(N)N [Metformin, metformin] | – | 108.17 mg/dL | 0.00 mg/dL | Significantly decreased | Significantly decreased | 161.67** mg/dL | 8.99* mg/dL | 127.17* mg/dL | 9.63** mg/dL | 121.50* mg/dL | 8.29** mg/dL | 114.00** mg/dL | 7.85** mg/dL | 106.33** mg/dL | 3.67** mg/dL | 0/6 | 1 | 232.63 g
